Measurements taken from US6358885B1, “Substituted phenylheterocyclic herbicides” (Mississippi State University, priority 1992, dated 2002).

Experiments:
barley [1] = assay: Test C preemergence/postemergence greenhouse plant response rating 0 to 100; format: in vivo, Hordeum vulgare; details: POSTEMERGENCE
Source text: (§1) The compounds evaluated in this test were formulated in a non-phytoxic solvent and applied to the soil surface before plant seedlings emerged (preemergence application), to water that covered the soil surface (flood application), and to plants that were in the one-to-four leaf stage (postemergence application). A sandy loam soil was used for the preemergence and postemergence tests, while a silt loam soil was used in the flood test. Water depth was approximately 2.5 cm for the flood test and was maintained at this level for the duration of the test. Plant species in the preemergence and postemergence tests consisted of barley (Hordeum vulgare), bedstraw (Galium aparine), blackgrass (Alopecurus myosuroides), chickweed (Stellaria media), corn (Zea mays), cotton (Gossypium hirsutum), crabgrass (Digitaria sanguinalis), downy brome (Bromus tectorum), giant foxtail (Setaria faberii), lambsquarters (Chenopodium album), morningglory (Ipomoea hederacea), pigweed ([…]), rape (Brassica napus), ryegrass (Lolium multiflorum), sorghum (Sorghum bicolor), soybean (Glycine max), speedwell (Veronica persica), sugar beet (Beta vulgaris), velvetleaf (Abutilon theophrasti), wheat (Triticum aestivum), wild buckwheat (Polygonum convolvulus), and wild oat (Avena fatua). All plant species were planted one day before application of the compound for the preemergence portion-of this test. Plantings of these species were adjusted to produce plants of appropriate size for the post-emergence portion of the test. […] All plant species were grown using normal greenhouse practices. Visual evaluations of injury expressed on treated plants, when compared to untreated controls, were recorded approximately fourteen to twenty one days after application of the test compound. […] A dash (-) response means no test result.

ryegrass = assay: as above; format: in vivo, Lolium multiflorum; details: POSTEMERGENCE
Source text: as §1

cotton = assay: Test B preemergence/postemergence greenhouse plant response rating 0 to 10; format: in vivo, Gossypium hirsutum; details: 0 to 10 scale
Summary of the method: (§2)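 Planted seeds are treated preemergence with compound dissolved in a non-phytotoxic solvent, while postemergence applications go onto plants of two to eighteen cm. Plants stay in the greenhouse twelve to sixteen days and are then rated visually relative to controls.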

sorghum [2] = assay: as above; format: in vivo, Sorghum bicolor; details: 0 to 10 scale
Summary of the method: as §2

rice = assay: as above; format: in vivo, Oryza sativa; details: 0 to 10 scale
Summary of the method: as §2

blackgrass [3] = assay: as above; format: in vivo, Alopecurus myosuroides; details: 0 to 10 scale
Summary of the method: as §2

bedstraw [4] = assay: Test C preemergence/postemergence greenhouse plant response rating 0 to 100; format: in vivo, Galium aparine; details: POSTEMERGENCE
Source text: as §1

wild buckwheat = assay: as above; format: in vivo, Polygonum convolvulus; details: POSTEMERGENCE
Source text: as §1

sugar beet = assay: as above; format: in vivo, Beta vulgaris; details: POSTEMERGENCE
Source text: as §1

blackgrass [5] = assay: as above; format: in vivo, Alopecurus myosuroides; details: POSTEMERGENCE
Source text: as §1

sorghum [6] = assay: as above; format: in vivo, Sorghum bicolor; details: POSTEMERGENCE
Source text: as §1

pigweed = assay: as above; format: in vivo, Amaranthusretroflexus; details: POSTEMERGENCE
Source text: as §1

bedstraw [7] = assay: Test B preemergence/postemergence greenhouse plant response rating 0 to 10; format: in vivo, Galium aparine; details: 0 to 10 scale
Summary of the method: as §2

cheatgrass = assay: as above; format: in vivo, Bromus secalinus; details: 0 to 10 scale
Summary of the method: as §2

wheat = assay: as above; format: in vivo, Triticum aestivum; details: 0 to 10 scale
Summary of the method: as §2

barley [8] = assay: as above; format: in vivo, Hordeum vulgare; details: 0 to 10 scale
Summary of the method: as §2

rape = assay: as above; format: in vivo, Brassica napus; details: 0 to 10 scale
Summary of the method: as §2

With C#CCN1C(=O)COc2cc(F)c(-c3nn4c(c3Br)CCCC4)cc21 [Compound 56] as the molecule, how does the “Plant response rating Barley Igri” value (barley [1]; 62 g/ha, 0 to 100 scale) read?
The value was 50.

And the “Plant response rating (0 to 100), Barley Igri” value (barley [1]; Rate 1 g/ha)?
The value was 30.

And the “Plant response rating (0 to 100), Barley Igri” value (barley [1]; Rate 4 g/ha)?
Its value is 30.

What about the “Plant response rating (0 to 100), Barley Igri” value (barley [1]; Rate 16 g/ha) of the same molecule?
The value was 50.

And the “Plant response rating Ryegrass” value (ryegrass; 62 g/ha, 0 to 100 scale)?
The value was 50.

What about the “Plant response rating (0 to 100), Ryegrass” value (ryegrass; Rate 1 g/ha) of the same molecule?
The value was 20.

And the “Plant response rating (0 to 100), Ryegrass” value (ryegrass; Rate 4 g/ha)?
The value was 40.

What about the “Plant response rating (0 to 100), Ryegrass” value (ryegrass; Rate 16 g/ha) of the same molecule?
Its value is 40.

And the “Plant response rating, Cotton” value (cotton; POSTEMERGENCE, Rate 10 g/ha)?
Its value is 10.

What about the “Plant response rating, Cotton” value (cotton; POSTEMERGENCE, Rate 50 g/ha) of the same molecule?
The value was 10.

And the “Plant response rating, Cotton” value (cotton; PREEMERGENCE, Rate 10 g/ha)?
The value was 0.

What about the “Plant response rating, Cotton” value (cotton; PREEMERGENCE, Rate 50 g/ha) of the same molecule?
Its value is 0.

And the “Plant response rating, Sorghum” value (sorghum [2]; POSTEMERGENCE, Rate 10 g/ha)?
Its value is 3.

And the “Plant response rating, Sorghum” value (sorghum [2]; POSTEMERGENCE, Rate 50 g/ha)?
Its value is 2.

And the “Plant response rating, Sorghum” value (sorghum [2]; PREEMERGENCE, Rate 50 g/ha)?
The value was 0.

What about the “Plant response rating, Rice” value (rice; POSTEMERGENCE, Rate 10 g/ha) of the same molecule?
The value was 3.

And the “Plant response rating, Rice” value (rice; POSTEMERGENCE, Rate 50 g/ha)?
Its value is 4.

And the “Plant response rating, Rice” value (rice; PREEMERGENCE, Rate 50 g/ha)?
The value was 0.

What about the “Plant response rating, Blackgrass” value (blackgrass [3]; POSTEMERGENCE, Rate 10 g/ha) of the same molecule?
Its value is 6.

What about the “Plant response rating, Blackgrass” value (blackgrass [3]; POSTEMERGENCE, Rate 50 g/ha) of the same molecule?
The value was 7.

What about the “Plant response rating, Blackgrass” value (blackgrass [3]; PREEMERGENCE, Rate 10 g/ha) of the same molecule?
Its value is 3.

What about the “Plant response rating, Blackgrass” value (blackgrass [3]; PREEMERGENCE, Rate 50 g/ha) of the same molecule?
Its value is 6.

And the “Plant response rating, Bedstraw” value (bedstraw [4]; 62 g/ha, 0 to 100 scale)?
Its value is 100.

And the “Plant response rating (0 to 100), Bedstraw” value (bedstraw [4]; Rate 1 g/ha)?
The value was 70.

What about the “Plant response rating (0 to 100), Bedstraw” value (bedstraw [4]; Rate 4 g/ha) of the same molecule?
Its value is 80.

What about the “Plant response rating (0 to 100), Bedstraw” value (bedstraw [4]; Rate 16 g/ha) of the same molecule?
The value was 95.

What about the “Plant response rating, Wild buckwheat” value (wild buckwheat; 62 g/ha, 0 to 100 scale) of the same molecule?
Its value is 100.

And the “Plant response rating (0 to 100), Wild buckwheat” value (wild buckwheat; Rate 1 g/ha)?
Its value is 100.

What about the “Plant response rating (0 to 100), Wild buckwheat” value (wild buckwheat; Rate 4 g/ha) of the same molecule?
The value was 100.

And the “Plant response rating (0 to 100), Wild buckwheat” value (wild buckwheat; Rate 16 g/ha)?
Its value is 100.

And the “Plant response rating, Sugar beet” value (sugar beet; 62 g/ha, 0 to 100 scale)?
The value was 100.

And the “Plant response rating (0 to 100), Sugar beet” value (sugar beet; Rate 1 g/ha)?
Its value is 100.

What about the “Plant response rating (0 to 100), Sugar beet” value (sugar beet; Rate 4 g/ha) of the same molecule?
Its value is 100.

And the “Plant response rating (0 to 100), Sugar beet” value (sugar beet; Rate 16 g/ha)?
Its value is 100.

What about the “Plant response rating, Blackgrass” value (blackgrass [5]; 62 g/ha, 0 to 100 scale) of the same molecule?
The value was 80.

What about the “Plant response rating (0 to 100), Blackgrass” value (blackgrass [5]; Rate 1 g/ha) of the same molecule?
Its value is 30.

And the “Plant response rating (0 to 100), Blackgrass” value (blackgrass [5]; Rate 4 g/ha)?
The value was 40.

What about the “Plant response rating (0 to 100), Blackgrass” value (blackgrass [5]; Rate 16 g/ha) of the same molecule?
The value was 65.

What about the “Plant response rating, Sorghum” value (sorghum [6]; 62 g/ha, 0 to 100 scale) of the same molecule?
Its value is 60.

What about the “Plant response rating (0 to 100), Sorghum” value (sorghum [6]; Rate 1 g/ha) of the same molecule?
The value was 20.

What about the “Plant response rating (0 to 100), Sorghum” value (sorghum [6]; Rate 4 g/ha) of the same molecule?
The value was 30.

What about the “Plant response rating (0 to 100), Sorghum” value (sorghum [6]; Rate 16 g/ha) of the same molecule?
Its value is 50.

And the “Plant response rating Pigweed” value (pigweed; 62 g/ha, 0 to 100 scale)?
The value was 100.

What about the “Plant response rating (0 to 100), Pigweed” value (pigweed; Rate 1 g/ha) of the same molecule?
Its value is 100.

What about the “Plant response rating (0 to 100), Pigweed” value (pigweed; Rate 4 g/ha) of the same molecule?
Its value is 100.

And the “Plant response rating (0 to 100), Pigweed” value (pigweed; Rate 16 g/ha)?
The value was 100.

And the “Plant response rating, Bedstraw” value (bedstraw [7]; POSTEMERGENCE, Rate 10 g/ha)?
The value was 8.

And the “Plant response rating, Bedstraw” value (bedstraw [7]; POSTEMERGENCE, Rate 50 g/ha)?
Its value is 10.

What about the “Plant response rating, Bedstraw” value (bedstraw [7]; PREEMERGENCE, Rate 10 g/ha) of the same molecule?
Its value is 4.

What about the “Plant response rating, Bedstraw” value (bedstraw [7]; PREEMERGENCE, Rate 50 g/ha) of the same molecule?
Its value is 9.

What about the “Plant response rating, Cheatgrass” value (cheatgrass; POSTEMERGENCE, Rate 10 g/ha) of the same molecule?
The value was 5.

And the “Plant response rating, Cheatgrass” value (cheatgrass; POSTEMERGENCE, Rate 50 g/ha)?
Its value is 6.

And the “Plant response rating, Cheatgrass” value (cheatgrass; PREEMERGENCE, Rate 10 g/ha)?
The value was 5.

And the “Plant response rating, Cheatgrass” value (cheatgrass; PREEMERGENCE, Rate 50 g/ha)?
Its value is 5.

And the “Plant response rating, Wheat” value (wheat; POSTEMERGENCE, Rate 10 g/ha)?
Its value is 7.

What about the “Plant response rating, Wheat” value (wheat; POSTEMERGENCE, Rate 50 g/ha) of the same molecule?
Its value is 7.

And the “Plant response rating, Wheat” value (wheat; PREEMERGENCE, Rate 50 g/ha)?
The value was 4.

What about the “Plant response rating, Barley” value (barley [8]; POSTEMERGENCE, Rate 10 g/ha) of the same molecule?
Its value is 6.

What about the “Plant response rating, Barley” value (barley [8]; POSTEMERGENCE, Rate 50 g/ha) of the same molecule?
Its value is 7.

What about the “Plant response rating, Barley” value (barley [8]; PREEMERGENCE, Rate 10 g/ha) of the same molecule?
Its value is 0.

What about the “Plant response rating, Barley” value (barley [8]; PREEMERGENCE, Rate 50 g/ha) of the same molecule?
Its value is 2.

What about the “Plant response rating, Rape” value (rape; POSTEMERGENCE, Rate 10 g/ha) of the same molecule?
Its value is 10.

And the “Plant response rating, Rape” value (rape; POSTEMERGENCE, Rate 50 g/ha)?
The value was 10.

And the “Plant response rating, Rape” value (rape; PREEMERGENCE, Rate 50 g/ha)?
The value was 3.
